Our source for the IC50 values is US6121326A, “Substituted alkyltetraamine derivatives” (Nippon Zoki Pharmaceutical Co., Ltd., priority 2000, dated 2000).

The test system of the assay is Substance P. Briefly: Tachykinin antagonistic action: suppression of substance P-induced contraction of isolated guinea pig ileum. Set-up: species or system guinea pig (Hartley strain, male). As to conditions: isotonic contraction, substance P 10^-8 M, 10 minutes treatment with test drug. On the procedure: The compounds of the present invention were tested by an assay using ileum isolated from guinea pigs. Male guinea pigs of the Hartley strain (400 g to 500 g) were fainted and bled out. Then, ileum was isolated and hung in an organ bath filled with a nutritive solution. After an equilibration for 60 minutes, isotonic contraction was recorded. Substance P, a tachykinin agonist, was administered in a dose of 10^-8 M every 15 minutes. Administration of substance P was repeated for 3 to 4 times and it was confirmed that a contraction height for each run became constant. The constant contraction was used as a control. A treatment with the test drug was carried out for 10 minutes and then substance P was administered again and a concentration vs. action curve was prepared. A 50% suppression concentration (lC50) was determined from the concentration vs. action curve of the test drug. The compound of the present invention was used as a test drug and an example of the result of its antagonistic action to substance P is shown in Table 1: […]

Consider `COc1cc(/C=C/C(=O)NCCCN(CCCCN(CCCNC(=O)/C=C/c2ccc(O)c(OC)c2)C(=O)/C=C/c2ccc(O)c(OC)c2)C(=O)/C=C/c2ccc(O)c(OC)c2)ccc1O` [Compound 4, N1,N5,N10,N14-Tetrakis[3-(4-hydroxy-3-methoxyphenyl)-2-propenoyl]tetraazatetradecane], for which half-maximal inhibition (IC50) required 580 nM. In other words, the sub-micromolar range.

`O=C(/C=C/c1ccc(O)cc1)NCCCN(CCCCN(CCCNC(=O)/C=C/c1ccc(O)cc1)C(=O)/C=C/c1ccc(O)cc1)C(=O)/C=C/c1ccc(O)cc1` [Compound 2, N1,N5,N10,N14-Tetrakis[3-(4-hydroxyphenyl)-2-propenoyl]tetraazatetradecane]: the IC50 (commonly the midpoint of a concentration-inhibition curve) worked out at 11 nM.

As for `CC(=O)Oc1ccc(/C=C/C(=O)NCCCN(CCCCN(CCCNC(=O)/C=C/c2ccc(OC(C)=O)cc2)C(=O)/C=C/c2ccc(OC(C)=O)cc2)C(=O)/C=C/c2ccc(OC(C)=O)cc2)cc1` [Compound 1, N1,N5,N10,N14-Tetrakis[3-(4-acetoxyphenyl)-2-propenoyl]tetraazatetradecane], inhibition was half-maximal at 14 nM (IC50).

The compound `COc1cc(/C=C/C(=O)NCCCN(CCCCN(CCCNC(=O)/C=C/c2ccc(OC(C)=O)c(OC)c2)C(=O)/C=C/c2ccc(OC(C)=O)c(OC)c2)C(=O)/C=C/c2ccc(OC(C)=O)c(OC)c2)ccc1OC(C)=O` [Compound 3, N1,N5,N10,N14-Tetrakis[3-(4-acetoxy-3-methoxyphenyl)-2-propenoyl]tetraazatetradecane] yielded an IC50 of 710 nM.
